Data: US11596668B2, “Tissue repair” (THE UNIVERSITY OF SUSSEX, priority 2017, dated 2023)

How the values were obtained:
[1] = test system: rat aortic endothelial cells (RAECs); experiment: Proliferation assay, endothelial cells; format: cell-based; conditions: 24 h; for proliferation of rat aortic endothelial cells: 100 μM (0.1 mM); for optimum concentration for enhancing proliferation of rat aortic endothelial cells: tested 0-200 μM
Procedure: (§1) Proliferation assay: Proliferation of rat aortic endothelial cells (RAECs) and rat aortic smooth muscle cells (isolated from rats at animal unit at Sussex University) was evaluated using Trypan Blue exclusion test. Cells were seeded in 96 well plates at a seeding density of 1×10^4 cells/mL (0.15 mL/well). After 24 h, cells where treated with or without different concentrations of 2 HIF-1 inducers; DMOG and BIQ (0-200 μM). After another 24 hours, Trypan Blue was added and the cells that were stained (dead) and unstained (live) were counted. Results were expressed as number of cells/mL.

[2] = test system: rat aortic smooth muscle cells; experiment: Proliferation assay, smooth muscle cells; format: cell-based; conditions: 0-200 μM, 24 h
Procedure: as §1

[3] = test system: human fibroblasts; experiment: Scratch assay, skin injury model, fibroblasts; format: cell-based; conditions: agent alone (DMOG 100 μM or EPO 1 ng/ml), 3% serum, 21% oxygen, vs untreated cells
Procedure: (§2) An in vitro injury model using cells relevant to wound injury were used. Two different cell lines; human keratinocytes (HaCaT) and human fibroblasts were used as skin injury models.
(§3) Scratch assay: As described in example 3, the reparative effect of EPO (1 ng/mL) and DMOG (100 uM) were tested alone or in combination on HaCaT and fibroblasts incubated in cell culture medium (Dulbeccos cell culture medium) containing 3% serum in 21% oxygen for 24 h.

[4] = test system: HIF-1; experiment: HIF-1 in plasma by ELISA post balloon injury; format: in vivo, Sprague Dawley rats; conditions: DMOG 5 mg/Kg local hydrogel, 24 h post injury
Source text: (§4) Angioplasty model: Balloon catheter injury (angioplasty) was the model used as an in vivo injury model using Sprague Dawley rats (450 g). Animals were anesthetized using 2% isoflurane where the rats were placed in a supine position. The right carotid artery was exposed and a (2F Fogarty catheter) was used to cause injury. The catheter was inserted into the common carotid artery via the external carotid to cause complete removal of the vascular endothelium from the common carotid artery down to its junction with the aortic arch. DMOG (5 mg/Kg) and EPO (100 ug/Kg) were administered either alone or in combination in the form of a hydrogel (30% w/v pluronic F127 gel) and applied to the artery after injury. Endothelial regrowth was then assessed using Evan's blue staining (injected IV in the tail vein 30 min before culling the animal) 0 and 5 days after injury to assess the area of de-endothelialised surface; re-endothelialised regions remain unstained. Images of stained arteries were quantified using Image J software.
ELISA: Blood was collected from venous tail at 0, 1 and 5 days post injury. Plasma was separated and used for quantitative measurement of HIF-1 using ELISA method as described earlier.

[5] = test system: human keratinocytes (HaCaT); experiment: Scratch assay, skin injury model, keratinocytes; format: cell-based; conditions: agent alone (DMOG 100 μM or EPO 1 ng/ml), 3% serum, 21% oxygen, vs untreated cells
Procedure: as §2, §3

[6] = test system: HIF-1; experiment: HIF-1 in plasma by ELISA after local application on carotid artery; format: in vivo, Sprague Dawley rats; conditions: 24 h
Procedure: (§5) Male animal study: Sprague Dawley rats (450 g) were used in this study. Animals were anesthetized using 2% isoflurane where the rats were placed in a supine position. The right carotid artery was exposed and DMOG was applied locally at different concentrations (0-7.5 mg/Kg) on the artery using pluronic gel (30% w/w). 3 rats were used in each concentration group.
ELISA: After 24 h, blood was taken from the rat's tail in tubes containing EDTA as an anti-coagulant. Blood was kept on ice and centrifuged to separate the plasma which was immediately treated with a protease inhibitor. HIF-1 was quantified in the collected plasma using the ELISA assay as described in example 2. After 24 h, treated animals were culled and both the right (treated) and left (untreated) carotid arteries were isolated and snap frozen for further analysis.

[7] = test system: vascular endothelial growth factor (VEGF); experiment: VEGF gene expression by real time qPCR in RAECs; format: cell-based, rat; conditions: 100 μM, 18 h, 21% O2; reaches level similar to cells at 1% oxygen
Procedure: (§6) Cell culture: Rat aortic endothelial cells (RAECs) were seeded into 24-well plates and cultured until ˜80% confluent after which they were incubated with or without DMOG for 18 h at normal oxygen levels (21% O2). Cells incubated at 1% O2 where used as a positive control for HIF-1.
Real time qPCR: The gene expression of vascular endothelial growth factor (VEGF), a HIF-1 target gene, was analysed by quantitative polymerase chain reaction (qPCR). Cells were lysed using TRIzol (Invitrogen, Life Technologies) and RNA was then extracted and purified. RNA quality and concentration were determined using a NanoDrop ND-1000 (NanoDrop Technologies). Reverse transcription and real-time quantitative PCR (qPCR) were carried out on RNA samples for VEGF and β2-microglobulin (a housekeeping gene not affected by change in oxygen levels), using TaqMan gene expression assays (Applied Biosystems/Life Technologies). For gene expression quantification, the comparative threshold cycle (ΔΔCT) method was used following manufacturer's guide-lines. Results were normalized to β2-microglobulin expression and expressed as arbitrary units using one of the normoxic untreated samples as a calibrator. […]

[8] = test system: rat carotid artery; experiment: Balloon catheter injury (angioplasty) model, endothelial regrowth by Evan's blue staining; format: in vivo, Sprague Dawley rats; conditions: DMOG 5 mg/Kg alone, local hydrogel, 5 days after injury
Source text: as §4

[9] = test system: vascular endothelial growth factor (VEGF); experiment: VEGF gene expression in carotid artery by qPCR after local application; format: in vivo, Sprague Dawley rats; conditions: 24 h
Procedure: as §5
Real time qPCR: RNA was extracted and purified from the frozen artery sections using TRIzol (Invitrogen, Life Technologies). RNA quality and concentrations were determined using a NanoDrop ND-1000 (NanoDrop Technologies). Reverse transcription and real-time quantitative PCR (qPCR) were carried out on RNA samples for VEGF and β2-microglobulin as described in example 2.

[10] = test system: HIF-1; experiment: HIF-1 protein levels in cell lysates by ELISA; format: cell-based, rat; conditions: 100 μM, 18 h, 21% O2; reaches level similar to cells at 1% oxygen
Procedure: as §6
Enzyme linked immunosorbent assay (ELISA): HIF-1 protein levels were measured using ELISA. Treated cells were lysed in 80 μL lysis buffer (25 mmol/L Tris HCl pH 7. 6, 0.1% SDS, deoxycholate, 1% NP40, 0.5 mol/L EDTA, 40 mmol/L EGTA and protease inhibitors). Lysates were then centrifuged at 11,000 g for 15 min at 4° C. and the supernatant was collected. Protein concentrations were quantified using a BCA reagent kit (Pierce Biotechnology). HIF was measured using an ELISA kit (R&D systems and biotechne, UK) and expressed as pg/mg protein.
Similar to the methods described in example 2, HIF-1 protein expression and VEGF gene expression were quantitatively measured in vitro using ELISA and real time qPCR respectively using different the different HIF-1 inducers at different concentrations (0-500 uM).

[11] = test system: rat aortic endothelial cells (RAECs); experiment: Scratch assay (in vitro injury model), wound closure; format: cell-based; conditions: HIF-1 inducer 100 μM alone, 21% oxygen, 5% serum, vs untreated cells
Procedure: Scratch assay: This assay was used as an in vitro model of injury in rat aortic endothelial cells (RAECs). The effect of EPO on wound closure was investigated in either 21% or 1% O2. A reproducible scratch was produced in the endothelial monolayer and thereafter, either EPO (1 ng/mL) or saline (control) was added to the cells (in rat endothelial growth medium containing 5% serum) and subsequently incubated in 21% or 1% O2 for 24 hours. The defined area of the scratch was photographed under an inverted microscope (Olympus CKX41; Olympus Corporation, Tokyo, Japan) at lox magnification using a Micropix 5 megapixel colour complementary metal-oxide semiconductor digital camera (Olympus Cooperation). The position of the wound image was standardized each time against a horizontal line drawn on the base of the plate passing through the centre of each well. The scratch area was quantified using ImageJ software (National institutes of Health, Bethesda, Md., USA).
Scratch assay: Scratch assay was used as described in example 1. Cells where treated with DMOG (100 μM) and/or EPO (at 1 ng/mL). Cells incubated with medium containing 10% serum where used as positive control to reflect the maximum wound closure the cells could attain after 24 h. […]

[12] = 0-7.5 mg/Kg applied locally on carotid artery in pluronic gel
[13] = local application on carotid artery

Row | Structure (SMILES) | proliferation of rat aortic endothelial cells [1] | optimum concentration for enhancing proliferation of rat aortic endothelial cells [1] | proliferation of smooth muscle cells [2] | % wound closure after 24 h [3] | HIF-1 levels in rat plasma [4] | % wound closure after 24 h [5] | HIF levels in plasma [6, 12] | optimal dose to cause an increase in HIF-1 [6, 13] | gene expression of VEGF [7] | repair of the endothelial lining of rat carotid artery [8] | gene expression of VEGF in carotid artery [9, 12] | optimal dose to cause an increase in VEGF [9, 13] | HIF levels in cell lysates [10] | % wound closure after 24 h [11]
1 | O=C(O)CNC(=O)c1nc(Cl)c2ccccc2c1O [BIQ, N-[(1-Chloro-4-hydroxy-3-isoquinolinyl)carbonyl]glycine] | enhanced | 100 µM | no effect |  |  |  |  |  |  |  |  |  |  | 
2 | COC(=O)CNC(=O)C(=O)OC [DMOG, dimethyloxalylglycine] | enhanced | 100 µM | no effect | no significant different | significantly increased | no significant different | concentration dependent effect | 5 mg/kg | increase | significant effect | concentration dependent effect | 5 mg/kg | increase | 
3 | O=C(O)CNC(=O)c1c(O)c2ccccc2n(Cc2ccccc2)c1=O [IOX, N-[[1,2-Dihydro-4-hydroxy-2-oxo-1-(phenylmethyl)-3-quinolinyl]carbonyl]glycine] |  |  |  |  |  |  |  |  |  |  |  |  |  | no change
